Read-outs that look alike come from different tables or passages of the source.
Key:
C57BL/6 mice [1] = tested on: C57BL/6 mice
Method: In one set of experiments, compositions were tested in male C57BL/6 jugular vein catheterized (JVC) mice, 5-6 weeks old (Taconic), by infusing the animals with the liquid sulfide liquid compositions using 1 mL or 5 mL Luer-Lok syringes (Becton Dickison). An IPTT-300 transponder from Bio Medic Data Systems (BMDS) was used to monitor body temperature.
Each mouse was dosed with liquid compositions through the in-dwelling catheter using an infusion pump (Harvard Apparatus). The mouse was infused until the temperature chip implanted in the skin registered a body temperature of 33° C. […] Once the animal's temperature dropped to 33° C. or below, the infusion was stopped and the mouse was transferred into a hypoxic atmosphere (4.0% O2) together with a control mouse.

C. elegans [2] = assay: Lifespan in H2S-containing atmosphere; format: in vivo
Method: (§1) Growing Nematodes in H2S-Containing Atmospheres. Bristol strain N2 (wild-type) and mutant nematode strains were grown at room temperature on nematode growth medium (NGM) plates seeded with live E. coli OP50 food (48). Mutant strains obtained from the C. elegans genetic stock center were as follows: CB130, daf-2(e1370); DR26, daf-16(m26); VC520, isp-1(gk267); MQ130, clk-1(qm30); DA1116, eat-2(ad1116); VC199, sir-2.1(ok434). Plates were maintained in atmospheric chambers sealed with Dow Corning Vacuum Grease (Sigma). […] Gasses were hydrated using gas wash bottles (Fisher), and moved through ⅛ inch outer diameter FEP tubing (Cole Parmer) with connections by snap connectors (Cole Parmer), stainless steel quick connect fittings or compression fittings (Seattle Fluid Systems). […] All compressed gas mixtures used in this study were obtained from Byrne Gas and were certified standard to within 2% of indicated concentration. Flow tubes (Aalborg) were used to distribute the gas mixture to different chambers. Gas flow rate was 100 cc/m to small boxes (100-300 mL) and 800 cc/m to the large boxes (1-3 L) used to culture nematode strains at room temperature. At these flow rates, the gaseous environment of the atmospheric chambers is exchanged every 20-30 minutes. […] Data were collected using Chart software with a Powerlab data acquisition unit (ADInstruments) and analyzed with EXCEL.

C. elegans [3] = assay: Thermotolerance assay (survival at high temperature); format: in vivo
Method: as §1
Thermotolerance Assay. […] Care was taken to prevent the population from starving. Nematodes were picked from these mixed-stage populations as L4 larvae and allowed to develop for 24-48 h at room temperature; however, treated and control animals were always the same age. […] Groups of 20-30 animals were transferred to NGM plates without food and then placed into an atmospheric chamber perfused with the indicated gas at high temperature in an Echotherm 1N35 incubator (Torrey Pines Scientific, NIST traceable) or a VWR incubator model 2005 (VWR International). A ring of palmitic acid around the edge of the plate helped prevent the worms escaping the surface of the agar. […]

C. elegans [4] = assay: Rate of egg-laying; format: in vivo
Method: Animals were picked as L4 from mixed-stage populations and allowed to develop for 20-30 hours in the same conditions at room temperature. Individual worms were then placed onto NGM plates with a 10 μL spot of OP50 food. The number of embryos laid in 3-5 hours was counted to determine the rate of egg-laying. To create an atmosphere with 2% O2, N2 was mixed with 5% O2 balanced with N2. Smart-Trak series 100 mass flow controllers (Sierra Instruments) were used to mix the gas and to split it into 2 atmospheric chambers. […] In each experiment, 10-15 individuals were included in each group. The data shown in Table 2 are from one experiment that is representative of at least three independent assays.

C. elegans [5] = assay: Brood size measurement; format: in vivo; settings: moved to H2S, n=5
Source text: Brood size measurement. To determine the number of viable progeny produced by nematodes, individual fourth-stage larvae (L4) were transferred to NGM plates with OP50 food at room temperature. Animals were moved daily until they quit laying fertilized eggs. Progeny were counted as L4/young adult.

mice = settings: mouse, in vivo
Method: Experiments were stopped at 60 minutes, and animals still alive were returned to their cage.

C57BL/6 mice [6] = format: in vivo, mouse
[7] = 4.0% O2 after infusion until body temperature 33° C., test ended at 60 minutes
[8] = jugular vein infusion until body temperature of 33° C.

OCCS [2-Mercapto-ethanol]
toxicity (C57BL/6 mice [1]; mouse, in vivo): toxic
reduction of body (subcutaneous) temperature (C57BL/6 mice [1]; mouse, in vivo, sc): reduced body temperature

SCCOCCS [2-mercaptoethyl ether]
reduction of body (subcutaneous) temperature (C57BL/6 mice [1]; infusion, primary screen): reduced body temperature
toxicity (C57BL/6 mice [1]; mouse, in vivo): toxic

C[S+](C)[O-] [Dimethylsulfoxide]
effective dose (C57BL/6 mice [1]; too high to be considered for pharmaceutical purposes): 10 % DMSO

S [H2S, hydrogen sulfide]
delay in reaching 75% mortality versus control population (maximum lifespan) (C. elegans [2]; H2S-treated animals): 10 days
lifespan (C. elegans [2]; raised in H2S until L4, monitored in room air (FIG. 3C)): 12.8 ± 0.7 days
fraction of H2S-treated animals alive when the last untreated control animal had expired (mean) (C. elegans [3]; 15 experiments, L4 to 3rd day adults, 33 to 37 C (FIG. 11A)): 0.8
average of H2S-treated animals alive when all untreated animals had died (C. elegans [3]; 15 independent experiments, high temperature): 77-80%
survival time at high temperature (C. elegans [3]; grown in H2S before heat-shock, exposed to 35 C in room air (FIG. 2C)): 7.3 h
average rate of egg-laying (C. elegans [4]; clk-1(qm30), assayed in 2% O2 + H2S): 2.5 ± 1.0 embryos per hour
average rate of egg-laying (C. elegans [4]; clk-1(qm30), assayed in H2S): 3.2 ± 1.1 embryos per hour
average rate of egg-laying (C. elegans [4]; unadapted (wild-type grown in room air), assayed in 2% O2 + H2S): 4.5 ± 1.6 embryos per hour
average rate of egg-laying (C. elegans [4]; unadapted (wild-type grown in room air), assayed in H2S): 8.3 ± 3.0 embryos per hour
number of progeny (C. elegans [5]): 227±18
recovery after survival in 5% O2 (mice): no noticeable motor or behavioral deficits

CC(=O)N[C@@H](CS)C(=O)O [N-acetyl-L-cysteine]
reduction of body (subcutaneous) temperature (C57BL/6 mice [1]; infusion, primary screen): did not reduce subcutaneous temperature

CC(O)=S [Thioacetic acid]
reduction of body (subcutaneous) temperature (C57BL/6 mice [1]; mouse, in vivo, sc): reduced body temperature
enhancement of survival in hypoxia (C57BL/6 mice [6]; lethal hypoxia 4% O2): did not enhance survival in hypoxia

NCCS [cysteamine]
effective dose (C57BL/6 mice [1]; mouse, in vivo): 7.58 mmol/kg
survival in lethal hypoxia (C57BL/6 mice [6]; [7]): 45 min

CSC [dimethyl sulfide]
reduction of body (subcutaneous) temperature (C57BL/6 mice [1]; infusion, primary screen): did not reduce subcutaneous temperature

NCCCNCCSP(=O)(O)O [phosphorothioic acid S-(2-((3-aminopropyl)amino)ethyl)ester]
reduction of body (subcutaneous) temperature (C57BL/6 mice [1]; mouse, in vivo, sc): reduced body temperature
enhancement of survival in hypoxia (C57BL/6 mice [6]; mouse, in vivo): did not enhance survival in hypoxia

N=C(N)[SeH] [selenourea]
reduction of body (subcutaneous) temperature (C57BL/6 mice [1]; mouse, in vivo, sc): reduced body temperature
enhancement of survival in hypoxia (C57BL/6 mice [6]; lethal hypoxia 4% O2): did not enhance survival in hypoxia

CS(=O)[O-].[Na+] [sodium methane sulfinate]
reduction of body (subcutaneous) temperature (C57BL/6 mice [1]; infusion, primary screen): did not reduce subcutaneous temperature

[SeH2] [sodium selenide]
reduction of body (subcutaneous) temperature (C57BL/6 mice [1]; mouse, in vivo, sc): did not reduce subcutaneous temperature

N#C[S-].[Na+] [sodium thiocyanate]
effective dose (C57BL/6 mice [1]; [8]): 4.67 mmol/kg

C[S-].[Na+] [sodium thiomethoxide]
effective dose (C57BL/6 mice [1]; [8]): 4.61 mmol/kg
survival in lethal hypoxia (C57BL/6 mice [6]; [7]): 60 min

OC1CCSCC1 [tetrahydrothiopyran-4-ol]
survival in lethal hypoxia (C57BL/6 mice [6]; [7]): 15 min

O=C(O)CS [thioglycolic acid]
reduction of body (subcutaneous) temperature (C57BL/6 mice [1]; infusion, primary screen): reduced body temperature
toxicity (C57BL/6 mice [1]; mouse, in vivo): toxic

sodium sulfide
effective dose (C57BL/6 mice [1]; mouse, in vivo): 0.79 mmol/kg
survival in lethal hypoxia (C57BL/6 mice [6]; mouse, in vivo): 60 min

Source: US20120135091A1, “METHODS AND COMPOSITIONS FOR ENHANCING LIFESPAN INVOLVING SIRTUIN-MODULATING COMPOUNDS AND CHALCOGENIDES” (priority 2007, published 2012)
